Source: PMC7806715, “Discovery of small molecules targeting the tandem tudor domain of the epigenetic factor UHRF1 using fragment-based ligand discovery” (Scientific Reports, 2021)
Substitutions are numbered along the chain they refer to.

Columns and labels:
[1] = biological target: T1, TTD-PHD S298D mutant vs. H3K9me3 peptide (Homo sapiens, UniProt Q96T88, S298D); assay: TR-FRET assay: TTD-PHD S298D mutant binding to H3K9me3 peptide; format: biochemical; conditions: 2.5 mM 2,4-lutidine
T1 construct: made in house; host or cells: E. coli (host printed for TTD-PHD in general: Rosetta (DE3))
T1 sequence (Q96T88 123-366 S298D): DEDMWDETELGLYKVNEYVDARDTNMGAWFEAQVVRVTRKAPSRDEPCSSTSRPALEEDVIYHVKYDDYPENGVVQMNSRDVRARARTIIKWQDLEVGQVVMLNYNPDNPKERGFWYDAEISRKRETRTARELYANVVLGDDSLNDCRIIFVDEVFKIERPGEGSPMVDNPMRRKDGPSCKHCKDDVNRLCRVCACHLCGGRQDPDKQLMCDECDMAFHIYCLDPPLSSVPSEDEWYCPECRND
Procedure: The fragment screen was carried out on low volume 384-well white plates (Corning 4512) and the assay was performed at room temperature. […] After 1 h of incubation, the fluorescent signals at 665 nm and 620 nm of each plate were measured by the Tecan Infinite M1000 plate reader (excitation 340 nm, 60 μs lag time, and 500 μs integration time) and the TR-FRET signal was calculated by the ratio of 665 nm/620 nm fluorescent signal. For the fragment screen, on seven of the library plates there were 32-wells of DMSO control, while there were 8-wells of DMSO control in the last plate. […] The only difference was that the final concentration of […] assay, while the final concentration of His6-UHRF1-FL was 200 nM and biotin-H3K9me3 peptide was 100 nM for the His6-UHRF1-FL TR-FRET assay. The buffer pH was 7.5 for the His6-TTD-PHD and His6-UHRF1-FL assays.

[2] = biological target: T2, C-FLAG-UHRF1-FL (Homo sapiens, UniProt Q96T88); assay: Intrinsic tryptophan fluorescence of C-FLAG-UHRF1-FL; format: binding; conditions: 5 µM protein
T2 construct: His6-UHRF1-full length (His6-UHRF1-FL); His (N); made in house; host or cells: Rosetta (DE3) E. coli, pMCSG7
T2 sequence (Q96T88 1-793): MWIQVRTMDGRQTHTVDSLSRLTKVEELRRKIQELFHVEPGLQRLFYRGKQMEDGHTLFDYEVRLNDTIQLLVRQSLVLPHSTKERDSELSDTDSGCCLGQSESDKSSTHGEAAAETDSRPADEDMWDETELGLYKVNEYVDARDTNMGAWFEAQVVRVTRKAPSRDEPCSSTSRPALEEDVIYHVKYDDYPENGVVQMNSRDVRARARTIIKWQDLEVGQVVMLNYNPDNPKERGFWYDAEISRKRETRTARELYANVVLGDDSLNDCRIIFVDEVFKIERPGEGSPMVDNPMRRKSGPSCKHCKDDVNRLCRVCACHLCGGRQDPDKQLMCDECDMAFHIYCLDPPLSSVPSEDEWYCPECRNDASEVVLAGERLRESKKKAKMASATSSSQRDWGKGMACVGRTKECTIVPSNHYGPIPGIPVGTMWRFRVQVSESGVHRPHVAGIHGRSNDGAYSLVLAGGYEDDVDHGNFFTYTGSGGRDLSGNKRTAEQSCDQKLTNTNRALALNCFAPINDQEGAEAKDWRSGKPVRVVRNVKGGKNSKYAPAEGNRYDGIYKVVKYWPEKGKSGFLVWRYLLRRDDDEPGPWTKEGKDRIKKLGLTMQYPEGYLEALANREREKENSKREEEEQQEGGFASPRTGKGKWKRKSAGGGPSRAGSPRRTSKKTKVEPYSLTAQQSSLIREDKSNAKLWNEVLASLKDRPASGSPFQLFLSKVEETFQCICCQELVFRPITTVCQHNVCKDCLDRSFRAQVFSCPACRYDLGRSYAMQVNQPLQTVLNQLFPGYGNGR
Procedure: (§1) The untagged TTD was diluted to 30 µM by buffer (50 mM sodium phosphate, pH 7.5, 150 mM NaCl) with or without 60 µM of H3K9me3 peptide (1–20) (Anaspec). 10 µL of diluted TTD was added into 384-well flat bottom black plate (Greiner, Cat# 781086). […] The final concentration of TTD was 15 µM and the H3K9me3 peptide (if included) was 30 µM. The experiment was performed at room temperature. […] After compound addition, the intrinsic tryptophan fluorescence was analyzed by the Tecan Infinite M1000 plate reader (excitation 280 nm, emission 334 nm). […] Tryptophan fluorescence monitors 2 , 4 - lutidine binding to His 6 - TTD, His 6 - TTD - PHD, and C - FLAG - UHRF 1 - FL . 2 , 4 - Lutidine dose - dependently quenched the tryptophan fluorescence of TTD (purple circle), while only started to show quenching effect against His 6 - TTD - PHD at mM concentration (blue diamond) . 2 , 4 - Lutidine had no effect on the fluorescence of C - FLAG - UHRF 1 - FL and the control USP 7 - UBL 1 / 2 protein . n= 3 for each data point . (Note : the standard deviation error bars are included, but the error values are often extremely small in this assay) . […]

[3] = biological target: T3, His6-TTD-PHD (Homo sapiens, UniProt Q96T88); assay: Intrinsic tryptophan fluorescence of His6-TTD-PHD; format: binding; conditions: 3.2 µM protein
T3 construct: made in house; host or cells: Rosetta (DE3) E. coli, pMCSG7
T3 sequence (Q96T88 123-366): T1 sequence (Q96T88 123-366 S298D) with D176S
Procedure: as §1

[4] = biological target: His-USP7-UBL1/2 (control protein) (Homo sapiens, UniProt Q93009); assay: Intrinsic tryptophan fluorescence of control protein; format: binding; conditions: 3.2 µM protein
His-USP7-UBL1/2 (control protein), sequence (Q93009 560-776 limits assumed): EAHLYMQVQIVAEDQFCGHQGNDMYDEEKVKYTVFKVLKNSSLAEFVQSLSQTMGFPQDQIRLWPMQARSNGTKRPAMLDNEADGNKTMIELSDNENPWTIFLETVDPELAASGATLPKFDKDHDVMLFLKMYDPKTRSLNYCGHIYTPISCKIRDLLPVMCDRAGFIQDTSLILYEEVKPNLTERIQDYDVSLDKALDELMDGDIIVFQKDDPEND

Cc1ccnc(C)c1 [2,4-lutidine]
inhibition of binding to H3K9me3 peptide [1]: 44.5%
quenching of C-FLAG-UHRF1 tryptophan fluorescence (in words) [2]: did not quench
quenching of His6-TTD-PHD tryptophan fluorescence (in words) [3]: only at close to mM concentrations
effect on tryptophan fluorescence of control protein (in words) [4]: did not inhibit
